Source: ChEMBL document CHEMBL1135903 (J Med Chem, 2002)

What was measured:
Carbonic anhydrase 4 = molecular target: T1, Carbonic anhydrase 4 (Bos taurus, UniProt Q95323)
T1 sequence (Q95323 whole entry): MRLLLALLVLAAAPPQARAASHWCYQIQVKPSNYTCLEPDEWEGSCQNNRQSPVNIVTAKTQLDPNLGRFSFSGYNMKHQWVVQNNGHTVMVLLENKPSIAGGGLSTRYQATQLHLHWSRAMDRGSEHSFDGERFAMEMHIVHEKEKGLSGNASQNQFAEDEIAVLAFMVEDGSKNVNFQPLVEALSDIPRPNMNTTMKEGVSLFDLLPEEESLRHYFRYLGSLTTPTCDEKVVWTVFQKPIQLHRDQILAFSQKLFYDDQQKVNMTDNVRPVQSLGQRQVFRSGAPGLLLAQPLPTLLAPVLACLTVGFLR
Description: Inhibitory activity against bovine carbonic anhydrase IV

Carbonic anhydrase 1 = Carbonic anhydrase 1 (Homo sapiens, UniProt P00915)
Chain of Carbonic anhydrase 1 (P00915 whole entry): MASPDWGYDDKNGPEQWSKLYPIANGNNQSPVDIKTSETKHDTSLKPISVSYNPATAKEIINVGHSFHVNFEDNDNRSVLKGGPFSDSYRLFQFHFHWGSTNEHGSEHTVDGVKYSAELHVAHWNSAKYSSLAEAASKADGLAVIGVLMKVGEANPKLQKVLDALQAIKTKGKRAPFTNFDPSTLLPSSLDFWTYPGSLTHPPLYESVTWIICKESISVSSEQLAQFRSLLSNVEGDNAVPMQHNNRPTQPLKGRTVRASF
Description: Inhibitory activity against Human carbonic anhydrase I

| SMILES | Ki (Carbonic anhydrase 4) [nM] | Ki (Carbonic anhydrase 1) [nM] |
| --- | --- | --- |
| NS(=O)(=O)c1nc2ccc(OC(=O)CN(CCOCCOCCN(CC(=O)O)CC(=O)O)CC(=O)O)cc2s1 | 5 | 33 |
| Cn1nc(S(N)(=O)=O)s/c1=N/C(=O)CN(CCOCCOCCN(CC(=O)O)CC(=O)/N=c1/sc(S(N)(=O)=O)nn1C)CC(=O)O | 5 | 36 |
| NS(=O)(=O)c1cccc(NC(=O)CN(CCN(CC(=O)O)CC(=O)O)CC(=O)O)c1 | 750 | 10000 |
| NS(=O)(=O)c1nnc(NC(=O)CN(CCOCCOCCN(CC(=O)O)CC(=O)Nc2nnc(S(N)(=O)=O)s2)CC(=O)O)s1 [listing 1 of 2 here] | 8 | 27 |
| NS(=O)(=O)c1ccccc1NC(=O)CN(CCOCCOCCN(CC(=O)O)CC(=O)Nc1ccccc1S(N)(=O)=O)CC(=O)O | 320 | 5600 |
| NS(=O)(=O)c1ccc(NNC(=O)CNCCNCC(=O)O)cc1 | 950 | 21800 |
| NS(=O)(=O)c1ccc(COC(=O)CN(CC(=O)O)CC(=O)O)cc1 | 350 | 1200 |
| NS(=O)(=O)c1nc2ccc(OC(=O)CN(CCN(CC(=O)O)CC(=O)Oc3ccc4nc(S(N)(=O)=O)sc4c3)CC(=O)O)cc2s1 | 8 | 37 |
| NS(=O)(=O)c1cccc(NC(=O)CNCC(=O)O)c1 | 1500 | 23000 |
| NS(=O)(=O)c1ccc(NC(=O)CN(CCN(CC(=O)O)c2ccccc2O)c2ccccc2O)cc1 | 320 | 11500 |
| NS(=O)(=O)c1ccccc1NC(=O)CN(CCN(CC(=O)O)CC(=O)O)CC(=O)O | 800 | 9200 |
| NS(=O)(=O)c1ccc(CNC(=O)CNCC(=O)O)cc1 | 279 | 3600 |
| NS(=O)(=O)c1cc(S(N)(=O)=O)c(NC(=O)CN(CCOCCOCCN(CC(=O)O)CC(=O)Nc2c(S(N)(=O)=O)cc(S(N)(=O)=O)c(Cl)c2Cl)CC(=O)O)c(Cl)c1Cl | 21 | 49 |
| NS(=O)(=O)c1ccccc1NC(=O)CN(CC(=O)O)CC(=O)O | 1200 | 25800 |
| NS(=O)(=O)c1nnc(NC(=O)CCNC(=O)CN(CCOCCOCCN(CC(=O)O)CC(=O)O)CC(=O)O)s1 | 13 | 120 |
| NS(=O)(=O)c1ccc(NC(=O)CNCC(=O)O)cc1 | 450 | 21300 |
| NS(=O)(=O)c1nc2ccc(NC(=O)CN(CCN(CC(=O)O)CC(=O)Nc3ccc4nc(S(N)(=O)=O)sc4c3)CC(=O)O)cc2s1 | 9 | 33 |
| NS(=O)(=O)c1ccc(COC(=O)CN(CCN(CC(=O)O)CC(=O)O)CC(=O)O)cc1 | 335 | 850 |

| SMILES | Ki (Carbonic anhydrase 4) [nM] | Ki (Carbonic anhydrase 1) [nM] |
| --- | --- | --- |
| NS(=O)(=O)c1cc(S(N)(=O)=O)c(NC(=O)CNCC(=O)O)c(Cl)c1Cl | 107 | 405 |
| NS(=O)(=O)c1ccc(NC(=O)CN(CCN(CC(=O)O)c2ccccc2O)c2ccccc2O)c(F)c1 | 79 | 450 |
| NS(=O)(=O)c1cc(S(N)(=O)=O)c(NC(=O)CN(CC(=O)O)CC(=O)O)cc1Cl | 148 | 300 |
| NS(=O)(=O)c1nc2ccc(OC(=O)CN(CCOCCOCCN(CC(=O)O)CC(=O)Oc3ccc4nc(S(N)(=O)=O)sc4c3)CC(=O)O)cc2s1 | 5 | 21 |
| NS(=O)(=O)c1ccc(NC(=O)CN(CCOCCOCCN(CC(=O)O)CC(=O)O)CC(=O)O)cc1 | 170 | 4000 |
| NS(=O)(=O)c1ccccc1NC(=O)CNCCNCC(=O)O | 1020 | 20500 |
| NS(=O)(=O)c1ccc(NC(=O)CN(CCN(CC(=O)O)CC(=O)O)CC(=O)O)c(Cl)c1 | 69 | 700 |
| NS(=O)(=O)c1ccc(NNC(=O)CN(CCN(CC(=O)O)CC(=O)O)CC(=O)O)cc1 | 750 | 16000 |
| NS(=O)(=O)c1ccc(CCNC(=O)CN(CCOCCOCCN(CC(=O)O)CC(=O)NCCc2ccc(S(N)(=O)=O)cc2)CC(=O)O)cc1 [listing 1 of 2 here] | 20 | 160 |
| NS(=O)(=O)c1nc2ccc(OC(=O)CNCC(=O)O)cc2s1 | 14 | 50 |
| NS(=O)(=O)c1ccc(CCOC(=O)CNCCNCC(=O)O)cc1 | 330 | 1000 |
| NS(=O)(=O)c1ccc(NC(=O)CN(CCN(CC(=O)O)c2ccccc2O)c2ccccc2O)c(Br)c1 | 56 | 175 |
| NS(=O)(=O)c1cc(S(N)(=O)=O)c(NC(=O)CN(CCN(CC(=O)O)c2ccccc2O)c2ccccc2O)cc1Cl | 123 | 240 |
| NS(=O)(=O)c1cc(S(N)(=O)=O)c(NC(=O)CN(CCN(CC(=O)O)CC(=O)O)CC(=O)O)cc1Cl | 105 | 210 |
| NS(=O)(=O)c1ccc(CCNC(=O)CN(CCOCCOCCN(CC(=O)O)CC(=O)NCCc2ccc(S(N)(=O)=O)cc2)CC(=O)O)cc1 [listing 2 of 2 here] | 12 | 30 |
| NS(=O)(=O)c1ccc(NC(=O)CNCC(=O)O)c(I)c1 | 114 | 515 |
| NS(=O)(=O)c1ccc(NC(=O)CNCC(=O)O)c(F)c1 | 145 | 1300 |

Further lines, results first:

| Ki (Carbonic anhydrase 4) [nM] | Ki (Carbonic anhydrase 1) [nM] | SMILES |
| --- | --- | --- |
| 320 | 1100 | NS(=O)(=O)c1ccc(CCOC(=O)CN(CC(=O)O)CC(=O)O)cc1 |
| 257 | 3450 | NS(=O)(=O)c1ccc(CCNC(=O)CNCC(=O)O)cc1 |
| 155 | 900 | NS(=O)(=O)c1ccc(NC(=O)CNCCNCC(=O)O)c(Cl)c1 |
| 6 | 30 | NS(=O)(=O)c1nc2ccc(OCCOC(=O)CN(CCOCCOCCN(CC(=O)O)CC(=O)O)CC(=O)O)cc2s1 |
| 34 | 105 | NS(=O)(=O)c1ccc(NC(=O)CN(CCN(CC(=O)O)CC(=O)Nc2ccc(S(N)(=O)=O)cc2Br)CC(=O)O)c(Br)c1 |
| 240 | 3300 | NS(=O)(=O)c1ccc(CCNC(=O)CN(CC(=O)O)CC(=O)O)cc1 |
| 32 | 290 | NS(=O)(=O)c1ccc(CCNC(=O)CN(CCOCCOCCN(CC(=O)O)CC(=O)O)CC(=O)O)cc1 |
| 96 | 130 | NS(=O)(=O)c1cc(S(N)(=O)=O)c(NC(=O)CN(CCN(CC(=O)O)CC(=O)O)CC(=O)O)c(Cl)c1Cl |
| 45 | 268 | NS(=O)(=O)c1nnc(NC(=O)CCNC(=O)CN(CC(=O)O)CC(=O)O)s1 |
| 13 | 52 | NS(=O)(=O)c1nc2ccc(NC(=O)CN(CCN(CC(=O)O)c3ccccc3O)c3ccccc3O)cc2s1 |
| 35 | 50 | NS(=O)(=O)c1cc(S(N)(=O)=O)c(NC(=O)CN(CCOCCOCCN(CC(=O)O)CC(=O)O)CC(=O)O)c(Cl)c1Cl |
| 105 | 250 | NS(=O)(=O)c1cc(S(N)(=O)=O)c(NC(=O)CN(CCN(CC(=O)O)c2ccccc2O)c2ccccc2O)c(Cl)c1Cl |
| 350 | 1260 | NS(=O)(=O)c1ccc(COC(=O)CNCC(=O)O)cc1 |
| 215 | 1050 | NS(=O)(=O)c1ccc(CCNC(=O)CN(CCN(CC(=O)O)c2ccccc2O)c2ccccc2O)cc1 |
| 83 | 900 | NS(=O)(=O)c1ccc(CNC(=O)CN(CCN(CC(=O)O)CC(=O)O)CC(=O)O)cc1 |
| 250 | 500 | NS(=O)(=O)c1ccc(COC(=O)CN(CCOCCOCCN(CC(=O)O)CC(=O)O)CC(=O)O)cc1 |
| 4 | 55 | NS(=O)(=O)c1nnc(NC(=O)CN(CCOCCOCCN(CC(=O)O)CC(=O)Nc2nnc(S(N)(=O)=O)s2)CC(=O)O)s1 [listing 2 of 2 here] |
| 103 | 780 | NS(=O)(=O)c1ccc(NC(=O)CNCCNCC(=O)O)c(F)c1 |
